≈ marks a conversion by molar mass, not a printed value.
Tests used:
[1] = target: T1, D-Alanyl-D-Alanine ligase (Enterococcus hirae, UniProt Q47827); assay: D-Alanyl-D-Alanine ligase inhibition in vitro; assay type: biochemical; conditions: inhibitor pre-incubated with enzyme 40 minutes at room temperature, then 37° C. for 30 minutes; 14C-D-alanine substrate; read-out: IC50 (μM), DAlaAla ligase inhibition
T1 sequence (Q47827 1-358): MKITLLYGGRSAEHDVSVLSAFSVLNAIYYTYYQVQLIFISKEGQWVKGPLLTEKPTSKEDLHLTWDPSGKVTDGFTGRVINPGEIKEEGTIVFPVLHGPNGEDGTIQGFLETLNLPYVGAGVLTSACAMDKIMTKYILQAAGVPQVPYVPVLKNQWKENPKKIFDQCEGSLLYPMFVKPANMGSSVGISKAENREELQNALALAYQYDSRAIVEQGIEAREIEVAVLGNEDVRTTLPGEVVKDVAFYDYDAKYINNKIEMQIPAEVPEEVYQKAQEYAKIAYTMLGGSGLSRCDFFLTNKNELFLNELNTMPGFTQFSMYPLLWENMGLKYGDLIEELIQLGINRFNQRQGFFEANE
Method: The ligase enzyme inhibitory activity of compounds of Formula I have been evaluated in vitro with only minor modifications of the procedures of F. C. Neuhaus (Biochemistry 3, 471-480 (1964) and references cited therein) using D-cycloserine as a control and standard ligase inhibitor. The procedure is as follows:
Streptococcus faecalis (ATCC 8043) was grown as described by Neuhaus (J. Biol. Chem., 237:778, 1962). Cell-free extracts were prepared by sonication followed by centrifugation at 27,000 x g for 30 minutes. Protein was precipitated with 55% ammonium sulfate. The precipitate was dissolved in 0.05M Tris-Cl buffer (pH 7.0), dialyzed against 0.002M glutathione and stored in liquid nitrogen. No loss of activity was observed after 1 year.
The assay mixture contained 0.05M Tris-Cl buffer (pH 7.9), 0.01M KCl, 0.008M MgCl2, 0.005M ATP, 0.005M (14C-l)-D-alanine and 5 μl of enzyme (specific activity=0.38 units/mg protein). Assay volume was 0.1 ml.
Inhibitors were pre-incubated with enzyme, MgCl2, KCl and buffer, for 40 minutes at room temperature, before addition of ATP and substrate. Samples were subsequently incubated at 37° C. for 30 minutes.
Twenty μl of each sample was applied to the preabsorbent layer of high resolution, prechanneled silica-gel TLC plates to stop the reaction. Plates were developed in ethanol:ammonium hydroxide:H2 O (11:1:8) for 2-3 hours and the radioactive zones located and integrated with a Berthold Linear Analyzer. […] IC50's were determined for active compounds (70% inhibition).

E. coli TEM 2+ = assay: Agar dilution antibacterial assay (MIC); assay type: cell-based; conditions: Escherichia coli, read-out: Minimum Inhibitory Concentration, E. coli TEM 2+
Source text: The antibacterial data shown below were obtained using a synthetic agar medium described by F. R. Atherton et al., Antimicrobial Agents and Chemotherapy, 15, 677 (1979).
(Minimum Inhibitory Concentrations from Agar Dilution Assays in mg/ml)

SMILES	IC50 [1] [µM]	MIC (E. coli TEM 2+) [mg/mL]
CC(N)P(=O)(O)CCC(=O)O (racemic) [DL, R2=H, R3=H, 1-Aminoethyl-[2-carboxy-1-ethyl]phosphinic acid]	535	–
CCC(CP(=O)(O)C(C)N)C(=O)O (racemic) [DL, R2=ethyl, R3=H, 1-Aminoethyl-[2-carboxy-1-n-butyl]phosphinic acid]	50	–
CCCCCCCC(CP(=O)(O)C(C)N)C(=O)O (racemic) [DL, R2=n-heptyl, R3=H, 1-Aminoethyl-[2-carboxy-1-nonyl]phosphinic acid]	12.5	–
CCC(CP(=O)(O)[C@@H](C)N)C(=O)O (stereo partly drawn) [D, R2=ethyl, R3=H, 1-D-Aminoethyl-(2-carboxy-1-n-butyl)phosphinic acid]	–	64 (≈ 306 mM)
